Results as given in ChEMBL document CHEMBL1201862, “PubChem BioAssay data set” (2004).
Calls of active or inactive are those of the source.

Legend:
[1] = molecular target: T1, Corticotropin-releasing factor receptor 2/Corticotropin-releasing factor-binding protein (Homo sapiens, UniProt P24387+Q13324); test: activators of CRF receptor 2 with binding protein – uHTS hits, confirmation (AID 602473); type: functional; conditions: read-out: EC50_Mean
T1 sequence (Q13324 whole entry): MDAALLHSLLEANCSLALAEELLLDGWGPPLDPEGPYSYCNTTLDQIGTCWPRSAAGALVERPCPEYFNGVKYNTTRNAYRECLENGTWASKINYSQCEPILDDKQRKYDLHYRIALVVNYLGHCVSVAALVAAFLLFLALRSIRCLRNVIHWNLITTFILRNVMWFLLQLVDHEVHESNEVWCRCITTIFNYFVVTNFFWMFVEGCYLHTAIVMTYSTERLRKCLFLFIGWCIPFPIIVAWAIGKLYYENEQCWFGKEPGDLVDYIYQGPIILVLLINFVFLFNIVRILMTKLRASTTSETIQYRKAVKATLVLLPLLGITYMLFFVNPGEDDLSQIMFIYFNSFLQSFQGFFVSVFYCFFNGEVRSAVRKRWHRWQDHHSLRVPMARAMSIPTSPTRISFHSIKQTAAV
T1 sequence (P24387 whole entry): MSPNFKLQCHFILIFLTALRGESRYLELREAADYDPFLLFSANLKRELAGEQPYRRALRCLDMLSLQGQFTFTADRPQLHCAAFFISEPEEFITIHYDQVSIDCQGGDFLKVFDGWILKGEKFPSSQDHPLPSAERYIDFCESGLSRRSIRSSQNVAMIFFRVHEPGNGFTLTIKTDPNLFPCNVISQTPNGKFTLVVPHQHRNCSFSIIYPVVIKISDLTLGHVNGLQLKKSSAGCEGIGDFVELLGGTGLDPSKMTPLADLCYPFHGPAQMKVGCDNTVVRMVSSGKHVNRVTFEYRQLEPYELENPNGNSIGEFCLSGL

[2] = control 3'UTR Renilla luciferase suppression, dose response, counter-screen for Shn3 inhibitor project, cell-based, Clone20-Shn3RL, cherry-picked (AID 624133); type: functional
[3] = Shn3 3'UTR reporter inhibitors, dose response, cell-based, Clone20 osteoblasts, firefly luciferase, cherry-picked (AID 624132); type: functional;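 also: firefly luciferase luminescence from reporter carrying the Shn3 3'UTR in osteoblasts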
Vero = test: cells; type: functional; conditions: Chlorocebus sabaeus
Paired box protein Pax-8 = Paired box protein Pax-8 (Homo sapiens, UniProt Q06710); test: inhibitors of PAX8-driven TPO luciferase reporter, dose response, RMG-I cells, cherry-pick (AID 687027); type: functional, cell-based;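 also: luciferase reporter driven by Pax8 target thyroperoxidase promoter measured by SteadyGlo luminescence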
[4] = molecular target: T2, RNA-binding protein pos-1 (Caenorhabditis elegans, UniProt G5EF15); test: inhibitors of POS-1/mex-3 RNA binding, dose response, biochemical, fluorescence polarization (AID 1964);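 also: purified POS-1 fused to maltose binding protein made in E. coli; potency of compounds blocking POS-1 binding to fluorescent RNA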
T2 sequence (G5EF15 whole entry): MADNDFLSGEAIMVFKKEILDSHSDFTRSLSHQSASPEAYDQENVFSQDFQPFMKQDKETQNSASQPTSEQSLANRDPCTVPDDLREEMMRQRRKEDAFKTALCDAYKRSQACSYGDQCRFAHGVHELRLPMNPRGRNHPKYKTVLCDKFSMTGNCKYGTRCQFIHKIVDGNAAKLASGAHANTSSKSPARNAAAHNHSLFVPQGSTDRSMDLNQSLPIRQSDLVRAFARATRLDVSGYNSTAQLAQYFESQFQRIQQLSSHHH

[5] = molecular target: T3, Zinc finger protein mex-5 (Caenorhabditis elegans, UniProt Q9XUB2); test: MEX-5/TCR-2 RNA interaction inhibitors, dose response, biochemical, C. elegans, fluorescence polarization (AID 1960)
T3 sequence (Q9XUB2 whole entry): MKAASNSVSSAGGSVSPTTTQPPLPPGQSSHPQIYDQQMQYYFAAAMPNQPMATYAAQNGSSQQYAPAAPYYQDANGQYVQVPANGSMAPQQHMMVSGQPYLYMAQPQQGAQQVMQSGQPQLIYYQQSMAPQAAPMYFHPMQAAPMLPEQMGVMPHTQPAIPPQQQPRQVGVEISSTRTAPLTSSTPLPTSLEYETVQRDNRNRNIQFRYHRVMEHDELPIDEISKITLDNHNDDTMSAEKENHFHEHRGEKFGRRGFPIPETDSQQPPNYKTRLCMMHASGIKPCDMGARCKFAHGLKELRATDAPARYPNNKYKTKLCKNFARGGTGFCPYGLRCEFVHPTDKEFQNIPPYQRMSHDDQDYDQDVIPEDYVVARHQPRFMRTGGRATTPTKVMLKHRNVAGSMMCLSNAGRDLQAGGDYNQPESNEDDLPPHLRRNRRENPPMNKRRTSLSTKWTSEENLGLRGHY

[6] = molecular target: T4, Carboxy-terminal domain RNA polymerase II polypeptide A small phosphatase 1 (Homo sapiens, UniProt Q9GZU7); test: inhibitors of CTDSP1, concentration-response testing, biochemical assay, absorbance-based, actives from ultra-high-throughput screening (AID 540297); type: functional
T4 sequence (Q9GZU7 whole entry): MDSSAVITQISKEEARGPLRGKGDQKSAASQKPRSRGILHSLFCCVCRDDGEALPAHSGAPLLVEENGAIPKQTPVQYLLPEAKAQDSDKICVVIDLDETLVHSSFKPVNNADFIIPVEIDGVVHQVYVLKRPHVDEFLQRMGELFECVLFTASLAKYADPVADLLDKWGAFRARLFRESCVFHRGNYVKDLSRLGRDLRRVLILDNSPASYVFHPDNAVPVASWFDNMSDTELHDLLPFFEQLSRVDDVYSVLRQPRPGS

[7] = molecular target: Heat shock protein HSP 90-alpha (Homo sapiens, UniProt P07900); type: functional, organism-based
[8] = molecular target: Luciferin 4-monooxygenase (Photinus pyralis, UniProt P08659); test: firefly luciferase enzyme inhibitors, dose response, biochemical, luminescence (AID 1891)
[9] = Luminescence Cell-Based Dose Confirmation HTS to Identify Inhibitors of Platelet Dense Granule Release. [Related pubchem assays: 1663 (Primary HTS), 1678 (Summary of Project)]; type: functional
Large T antigen = Large T antigen (Simian virus 40, UniProt P03070); type: functional, Betapolyomavirus macacae;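 also: Confirmatory-stage PubChem screen for compounds that inhibit SV40 T antigen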
[10] = molecular target: T5, Replicative DNA helicase DnaB (Mycobacterium tuberculosis, UniProt P9WMR3); test: DnaB intein splicing inhibitors, dose response, biochemical, cell-free fluorescence (AID 449749); type: functional
T5 sequence (P9WMR3 whole entry): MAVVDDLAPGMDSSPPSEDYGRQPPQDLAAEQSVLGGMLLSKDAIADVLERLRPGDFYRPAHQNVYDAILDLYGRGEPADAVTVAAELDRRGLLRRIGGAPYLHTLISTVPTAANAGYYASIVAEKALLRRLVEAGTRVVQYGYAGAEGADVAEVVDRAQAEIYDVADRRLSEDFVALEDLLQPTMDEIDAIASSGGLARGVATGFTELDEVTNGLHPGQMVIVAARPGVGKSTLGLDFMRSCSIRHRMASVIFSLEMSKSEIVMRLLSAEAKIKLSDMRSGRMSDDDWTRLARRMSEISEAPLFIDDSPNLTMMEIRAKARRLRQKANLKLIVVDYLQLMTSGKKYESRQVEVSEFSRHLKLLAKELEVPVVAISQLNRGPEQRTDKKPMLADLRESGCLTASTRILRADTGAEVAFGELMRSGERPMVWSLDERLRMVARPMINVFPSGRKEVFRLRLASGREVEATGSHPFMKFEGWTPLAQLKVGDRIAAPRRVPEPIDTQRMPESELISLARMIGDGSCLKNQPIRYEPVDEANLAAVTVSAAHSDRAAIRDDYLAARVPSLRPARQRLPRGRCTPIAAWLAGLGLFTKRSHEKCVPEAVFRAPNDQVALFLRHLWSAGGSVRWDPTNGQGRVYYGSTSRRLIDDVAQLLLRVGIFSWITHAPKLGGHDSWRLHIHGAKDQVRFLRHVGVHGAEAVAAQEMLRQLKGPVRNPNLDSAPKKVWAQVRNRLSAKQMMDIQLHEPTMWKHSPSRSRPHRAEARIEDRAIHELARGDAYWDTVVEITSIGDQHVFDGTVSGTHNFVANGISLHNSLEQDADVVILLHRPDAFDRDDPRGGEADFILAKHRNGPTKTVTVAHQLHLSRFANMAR

Protein RecA = molecular target: T6, Protein RecA (Mycobacterium tuberculosis, UniProt P9WHJ3); test: Fluorescence Cell-Free Homogeneous Dose Retest to Identify Inhibitors of RecA-Intein Splicing Activity. [Related pubchem assays (depositor defined):AID2097, AID2223, AID489010, AID492950]; type: functional
T6 sequence (P9WHJ3 whole entry): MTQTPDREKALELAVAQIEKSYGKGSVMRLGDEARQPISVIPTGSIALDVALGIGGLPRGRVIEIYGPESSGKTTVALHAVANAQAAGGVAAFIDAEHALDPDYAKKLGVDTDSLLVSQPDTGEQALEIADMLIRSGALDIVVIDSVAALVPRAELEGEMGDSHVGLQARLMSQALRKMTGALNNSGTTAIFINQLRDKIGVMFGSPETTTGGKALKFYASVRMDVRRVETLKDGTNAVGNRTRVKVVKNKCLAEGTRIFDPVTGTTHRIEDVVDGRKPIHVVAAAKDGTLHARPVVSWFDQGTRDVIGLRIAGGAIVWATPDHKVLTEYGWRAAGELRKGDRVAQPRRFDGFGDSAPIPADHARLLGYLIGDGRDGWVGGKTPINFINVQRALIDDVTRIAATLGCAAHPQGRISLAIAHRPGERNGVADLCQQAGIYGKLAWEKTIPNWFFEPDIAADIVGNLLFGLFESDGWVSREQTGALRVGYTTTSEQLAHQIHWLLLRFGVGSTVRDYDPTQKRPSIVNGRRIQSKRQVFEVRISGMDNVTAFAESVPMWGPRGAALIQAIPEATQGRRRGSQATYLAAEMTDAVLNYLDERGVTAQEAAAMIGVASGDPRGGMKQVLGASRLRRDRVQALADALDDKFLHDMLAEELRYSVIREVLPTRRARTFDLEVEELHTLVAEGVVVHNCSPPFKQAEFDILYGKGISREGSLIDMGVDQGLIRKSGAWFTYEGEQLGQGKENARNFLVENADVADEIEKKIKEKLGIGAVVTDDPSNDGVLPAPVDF

Chain of Paired box protein Pax-8 (Q06710 whole entry, the tested form may be a part): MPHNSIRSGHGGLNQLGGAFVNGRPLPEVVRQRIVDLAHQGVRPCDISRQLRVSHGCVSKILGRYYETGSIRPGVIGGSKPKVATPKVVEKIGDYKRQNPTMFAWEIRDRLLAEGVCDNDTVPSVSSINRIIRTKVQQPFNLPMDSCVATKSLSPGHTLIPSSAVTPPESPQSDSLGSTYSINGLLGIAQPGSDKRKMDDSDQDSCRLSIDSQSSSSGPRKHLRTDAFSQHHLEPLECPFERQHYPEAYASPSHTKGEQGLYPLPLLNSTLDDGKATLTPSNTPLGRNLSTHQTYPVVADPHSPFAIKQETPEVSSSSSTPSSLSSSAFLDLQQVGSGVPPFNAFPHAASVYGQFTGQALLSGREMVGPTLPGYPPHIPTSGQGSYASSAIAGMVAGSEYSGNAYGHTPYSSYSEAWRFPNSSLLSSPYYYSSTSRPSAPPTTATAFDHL
Chain of Large T antigen (P03070 whole entry): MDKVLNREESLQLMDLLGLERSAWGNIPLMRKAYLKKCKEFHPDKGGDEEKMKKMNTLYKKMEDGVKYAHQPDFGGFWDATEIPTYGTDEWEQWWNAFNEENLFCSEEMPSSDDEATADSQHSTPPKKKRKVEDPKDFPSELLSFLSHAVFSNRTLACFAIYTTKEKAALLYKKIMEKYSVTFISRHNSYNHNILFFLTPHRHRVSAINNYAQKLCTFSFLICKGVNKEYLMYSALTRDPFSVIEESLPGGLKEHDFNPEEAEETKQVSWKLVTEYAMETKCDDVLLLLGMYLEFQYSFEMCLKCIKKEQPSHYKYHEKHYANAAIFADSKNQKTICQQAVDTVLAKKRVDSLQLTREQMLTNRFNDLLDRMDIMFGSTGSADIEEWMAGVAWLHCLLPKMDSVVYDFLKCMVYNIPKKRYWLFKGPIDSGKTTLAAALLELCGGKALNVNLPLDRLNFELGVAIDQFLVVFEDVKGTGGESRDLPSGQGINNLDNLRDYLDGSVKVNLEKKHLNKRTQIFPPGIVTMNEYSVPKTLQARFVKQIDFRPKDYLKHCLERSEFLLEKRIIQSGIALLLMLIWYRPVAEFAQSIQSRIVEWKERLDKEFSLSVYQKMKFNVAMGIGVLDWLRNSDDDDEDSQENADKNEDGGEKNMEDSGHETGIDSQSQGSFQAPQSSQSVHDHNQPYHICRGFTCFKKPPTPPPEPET
Chain of Luciferin 4-monooxygenase (P08659 whole entry): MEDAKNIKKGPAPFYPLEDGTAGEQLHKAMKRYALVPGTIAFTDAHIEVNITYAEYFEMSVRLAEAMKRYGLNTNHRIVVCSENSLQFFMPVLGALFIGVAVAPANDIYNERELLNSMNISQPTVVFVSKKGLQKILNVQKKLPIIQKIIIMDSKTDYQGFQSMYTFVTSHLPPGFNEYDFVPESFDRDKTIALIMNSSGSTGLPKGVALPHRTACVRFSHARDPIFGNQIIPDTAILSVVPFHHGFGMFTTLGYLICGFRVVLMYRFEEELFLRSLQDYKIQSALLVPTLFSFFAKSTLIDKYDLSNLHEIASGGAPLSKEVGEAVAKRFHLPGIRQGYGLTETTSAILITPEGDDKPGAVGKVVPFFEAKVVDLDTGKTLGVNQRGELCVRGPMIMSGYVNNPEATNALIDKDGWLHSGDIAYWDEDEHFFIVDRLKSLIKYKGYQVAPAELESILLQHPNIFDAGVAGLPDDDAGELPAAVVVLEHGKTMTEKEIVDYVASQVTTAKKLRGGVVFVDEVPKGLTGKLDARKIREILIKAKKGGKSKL

## O=C(NCCOC(=O)C1COc2ccccc2O1)c1cccnc1 (centres undefined)
[1]
  EC50: > 53 µM (inactive)

## CC(=O)N1CCN(C(=O)CCc2cc(C(C)(C)C)c(O)c(C(C)(C)C)c2)CC1
[2]
  AC50: 14.5 µM (active)
[3]
  AC50: 4.46 µM (active)

## Cc1ccc(-c2cc3nc(-c4ccccc4)cc(NCCCO)n3n2)cc1
Vero
  CC50: > 25 µM (active)

## C[C@@H]1CCCCO[C@H](CN(C)C(=O)Nc2ccc(F)cc2)[C@@H](C)CN([C@@H](C)CO)C(=O)c2cc(NC(=O)Nc3ccc(C(F)(F)F)cc3)ccc2O1
Paired box protein Pax-8
  AC50: 2.58 µM (active)

## CC(=O)c1c(C(C)=O)c(C)n(-c2ccc(C(=O)O)cc2)c1C
[4]
  EC50: > 300 µM (not active)
[5]
  EC50: > 300 µM (not active)

## C[C@@H]1CCCCO[C@H](CN(C)Cc2ccc(C(F)(F)F)cc2)[C@H](C)CN([C@H](C)CO)C(=O)c2cc(NS(=O)(=O)c3ccc(F)cc3)ccc2O1
Paired box protein Pax-8
  AC50: 6.71 µM (active)

## C[N+]1(C2CCC3CCCC2C3O)CCCC1 (centres undefined)
[6]
  IC50: 6.98 µM (active)

## C[C@H]1CCCCO[C@@H](CN(C)C)[C@@H](C)CN([C@@H](C)CO)C(=O)c2cc(NC(=O)Nc3ccc(C(F)(F)F)cc3)ccc2O1
Paired box protein Pax-8
  AC50: 22.1 µM (active)

## Cc1cc(C(F)(F)F)c2c(N)c(C(=O)Nc3cc(C)on3)sc2n1
[4]
  EC50: > 300 µM (inconclusive)
[5]
  EC50: 39.2 µM (active)

## CCN(C(=O)CN1C(=O)COc2ccc(S(=O)(=O)N3CCCCCC3)cc21)c1cccc(C)c1
[1]
  EC50: 6.41 µM (active)

## COc1cccc(-c2ccc(NC(=O)C3CCCN(Cc4cnn(C(C)C)c4)C3)cc2)c1 (centres undefined)
Vero
  CC50: > 25 µM (active)

## COc1ccc(C2CC(=O)C(/C=N/CCCO)=C(O)C2)cc1 (centres undefined)
[4]
  EC50: 34.8 µM (active)
[5]
  EC50: 37.9 µM (active)

## CCCc1ccc(C(=O)NNC(=O)c2ccc(Cl)cc2)cc1
[6]
  IC50: 9.67 µM (active)

## CN(O)C(=S)c1ccccc1
[7]
  AC50: 0.521 µM (active)

## CC(=O)Nc1ccc(S(=O)(=O)N(C)CC(=O)OCC(=O)N2CCN(C(=O)c3ccco3)CC2)cc1
[6]
  IC50: 9.38 µM (active)

## NC(=O)c1c(NC(=O)c2c(F)cccc2F)sc2c1CCN(Cc1ccccc1)C2
[4]
  EC50: 57.1 µM (active)
[5]
  EC50: > 300 µM (not active)

## COc1ccc(OC)c(/N=C/c2c(O)oc3ccccc3c2=O)c1
[4]
  EC50: > 300 µM (inconclusive)
[5]
  EC50: > 300 µM (inconclusive)

## Oc1ccccc1-c1nc(NC2CCCC2)c2ccccc2n1
[7]
  AC50: 4.23 µM (active)

## O=C(CCN1C(=O)/C(=C/c2cccs2)SC1=S)NC1=NCCS1
[7]
  AC50: 5.03 µM (active)

## CN(C)c1ccc(N/C=C/C(=O)c2ccccc2)cc1
[8]
  EC50: 0.654 µM (active)
[9]
  EC50: 0.93 µM (active)
Large T antigen
  IC50: 5.19 µM (active)

## C#CCN(C[C@H]1[C@H](OC(=O)Nc2c(C)noc2C)[C@H](OC(=O)Nc2c(C)noc2C)C[C@@H](C(=O)OC)[C@H]1C(=O)OC)S(=O)(=O)c1ccc(C)cc1
Paired box protein Pax-8
  AC50: 31.9 µM (active)

## CC(C)(O)CCCC(C)(O)c1ccc(C(=O)O)cc1O (centres undefined)
[6]
  IC50: 9.75 µM (active)

## O=C(CCl)N1N=C(c2ccco2)CC1c1ccco1 (centres undefined)
[10]
  AC50: > 380 µM (inactive)
Protein RecA
  EC50: 9.97 µM (active)
Vero
  CC50: 9.82 µM (active)

## CC1CCN(C2CC(=O)N(c3ccc(Br)cc3Br)C2=O)CC1 (centres undefined)
[7]
  AC50: < 0.195 µM (active)

## COc1ccccc1NC(=O)c1nn(-c2ccc(Cl)cc2)ccc1=O
[6]
  IC50: 9.88 µM (active)

## Cc1c(N/C=C2\C(=O)NC(=O)N(Cc3ccccc3)C2=O)c(=O)n(-c2ccccc2)n1C
[4]
  EC50: > 300 µM (not active)
[5]
  EC50: > 300 µM (not active)

## O=C(COc1ccc2oc(-c3ccccc3)cc(=O)c2c1)NCc1ccco1
[6]
  IC50: 9.63 µM (active)

## CCn1c(=O)c(NC(=O)c2ccccc2)c2n(c1=S)CCCCC2
[6]
  IC50: 8.47 µM (active)
